US20090247646A1, “USE OF RESVERATROL AND DERIVATIVES THEREOF FOR PROMOTING THE WELLNESS STATE IN MAMMALS” (priority 2006, published 2009)
Values joined by “and” are separate entries in the source; they are usually repeats but may differ in a detail not shown here. Equal entries are not always repeated.

Tested on: gene expression in heart tissue
Experiment: Genome-wide gene expression in heart tissue of old mice fed a resveratrol-supplemented diet (Affymetrix Mouse Genome 430 2.0 array)
Assay type: in vivo
[1] = anaphase-promoting complex subunit 5, Genebank ID AK003821
[2] = calreticulin 3, Genebank ID AI324734
[3] = casein kinase II, alpha 1 polypeptide, Genebank ID BB283759
[4] = cathepsin B, Genebank ID M14222
[5] = cathepsin Z, Genebank ID NM_022325
[6] = cylindromatosis (turban tumor syndrome), Genebank ID AK013508
[7] = dual specificity phosphatase 6, Genebank ID NM_026268
[8] = dynein, cytoplasmic, heavy chain 1, Genebank ID NM_030238
[9] = dystrophia myotonica kinase, B15, Genebank ID AW108486
[10] = eukaryotic translation elongation factor 2, Genebank ID BC007152
[11] = eukaryotic translation initiation factor 2, subunit 3, structural gene X-linked, Genebank ID NM_012010
[12] = eukaryotic translation initiation factor 3, subunit 10 (theta), Genebank ID AW701127
[13] = eukaryotic translation initiation factor 4, gamma 1, Genebank ID BF227830
[14] = eukaryotic translation initiation factor 4A1, Genebank ID BI656407
[15] = eukaryotic translation initiation factor 4E like 3, Genebank ID AI449084
[16] = expressed sequence AI663987, Genebank ID BB764994
[17] = expressed sequence AW319487, Genebank ID NM_054085
[18] = f-box only protein 9, Genebank ID AK018482
[19] = f-box only protein 9, Genebank ID NM_023605
[20] = furin (paired basic amino acid cleaving enzyme), Genebank ID NM_011046
[21] = gene trap locus 6, Genebank ID BG923744
[22] = glutamyl-prolyl-tRNA synthetase, Genebank ID BM238943
[23] = golgi associated, gamma adaptin ear containing, ARF binding protein 3, Genebank ID BB501734
[24] = heat shock protein 1, beta, Genebank ID BI154147
[25] = homocysteine-inducible, endoplasmic reticulum stress-inducible, ubiquitin-like domain member 1, Genebank ID AI835088
[26] = homocysteine-inducible, endoplasmic reticulum stress-inducible, ubiquitin-like domain member 1, Genebank ID NM_022331
[27] = insulin degrading enzyme, Genebank ID AV027702
[28] = isoprenylcysteine carboxyl methyltransferase, Genebank ID BF462080
[29] = large tumor suppressor 2, Genebank ID BE986745
[30] = lipocalin 7, Genebank ID BC005738
[31] = membrane metallo endopeptidase [BLAST], Genebank ID AV174022
[32] = methionyl aminopeptidase 1, Genebank ID BG064851

Q: Which results are given for Oc1ccc(/C=C/c2cc(O)cc(O)c2)cc1 [resveratrol, 3,4′,5-Trihydroxy-trans-stilbene]?
A: share of genes that resembled or exceeded the expression level of the young group (among genes changed by resveratrol treatment, heart): 58.1%; % of res effect [1]: 74.85%; Median RES [1]: 33166; Median RES (basic leucine zipper and W2 domains 1, Genebank ID AV144956 (three lines), listed as RES): 19500 and 38679 and 25745; % of res effect (basic leucine zipper and W2 domains 1, Genebank ID AV144956 (three lines), listed as res): 83.81% and 115.0685% and 138.536%; % of res effect (calnexin, Genebank ID BI653492): 100.0356%; Median RES (calnexin, Genebank ID BI653492): 30204; % of res effect [2]: 114.042%; Median RES [2]: 8927; % of res effect [3]: 134.9706%; Median RES [3]: 5588; % of res effect [4]: 76.17%; Median RES [4]: 194089; % of res effect [5]: 116.4892%; Median RES [5]: 43097; % of res effect (cullin 3, Genebank ID AV273804): 77.09%; Median RES (cullin 3, Genebank ID AV273804): 22604; % of res effect [6]: 103.8541%; Median RES [6]: 8255; expression of genes involved in protein modification (down-regulated in the group of old animals, resveratrol group): these effects were reversed; % of res effect [7]: 107.0693%; Median RES [7]: 13740; % of res effect [8]: 152.317%; Median RES [8]: 30053; % of res effect [9]: 145.8017%; Median RES [9]: 62794; % of res effect [10]: 164.0928%; Median RES [10]: 165689; % of res effect [11]: 52.7%; Median RES [11]: 10650; % of res effect [12]: 107.144%; Median RES [12]: 55723; % of res effect [13]: 137.7081%; Median RES [13]: 73196; % of res effect [14]: 101.3515%; Median RES [14]: 71501; % of res effect [15]: 79.59%; Median RES [15]: 14990; % of res effect (eukaryotic translation initiation factor 4E, Genebank ID BB406487 (two lines), listed as res): 101.5818% and 143.9243%; % of res effect [16]: 178.7778%; Median RES [16]: 12520; % of res effect [17]: 126.3056%; Median RES [17]: 19940; % of res effect [18]: 67.8%; Median RES [18]: 6555; % of res effect [19]: 158.6897%; Median RES [19]: 48649; % of res effect [20]: 190.9945%; Median RES [20]: 8279; % of res effect [21]: 134.4155%; Median RES [21]: 40130; % of res effect [22]: 85.98%; Median RES [22]: 16720; % of res effect [23]: 171.8414%; Median RES [23]: 5532; % of res effect [24]: 153.7873%; Median RES [24]: 150912; % of res effect [25]: 127.2443%; Median RES [25]: 90964; % of res effect [26]: 133.1523%; Median RES [26]: 107786; % of res effect [27]: 106.9366%; Median RES [27]: 25035; % of res effect [28]: 160.1528%; Median RES [28]: 6260; % of res effect [29]: 56.11%; Median RES [29]: 6754; % of res effect [30]: 179.6828%; Median RES [30]: 14280; % of res effect [31]: 119.1558%; Median RES [31]: 8513; % of res effect [32]: 80.68%; Median RES [32]: 10496
